Test results reported in ChEMBL document CHEMBL3046064, “Expression of OPN in rat kidney with different doses of vitamin K3 injection” (2007).

Key:
Rattus norvegicus [1] = assay: Downregulation of OPN expression in 1% ethylene glycol-treated Rattus norvegicus Sprague-Dawley (rat) kidney at 2 mg/day, po after 14 days by ELISA (reference value: 75 +/- 13.5 %); format: functional
Rattus norvegicus [2] = species: Rattus norvegicus; assay: Renoprotective activity in 1% ethylene glycol-treated Rattus norvegicus Sprague-Dawley (rat) kidney assessed as decrease in oxalate excretion in urine at 0.4 mg/day after 14 days (reference value: 4.07 +/- 0.05 uM); format: functional
Rattus norvegicus [3] = species: Rattus norvegicus; assay: Renoprotective activity in 1% ethylene glycol-treated Rattus norvegicus Sprague-Dawley (rat) kidney assessed as decrease in oxalate excretion in urine at 2 mg/day after 14 days (reference value: 4.07 +/- 0.05 uM); format: functional
Rattus norvegicus [4] = assay: Downregulation of OPN expression in 1% ethylene glycol-treated Rattus norvegicus Sprague-Dawley (rat) kidney at 3 mg/day, po after 14 days by ELISA (reference value: 75 +/- 13.5 %); format: functional
Rattus norvegicus [5] = species: Rattus norvegicus; assay: Renoprotective activity in Rattus norvegicus Sprague-Dawley (rat) kidney assessed as decrease in oxalate excretion in urine at 4 mg/day after 14 days in presence of water (reference value: 1.11 +/- 0.06 uM); format: functional
Rattus norvegicus [6] = species: Rattus norvegicus; assay: Renoprotective activity in 1% ethylene glycol-treated Rattus norvegicus Sprague-Dawley (rat) kidney assessed as decrease in oxalate excretion in urine at 0.8 mg/day after 14 days (reference value: 4.07 +/- 0.05 uM); format: functional
Rattus norvegicus [7] = assay: Downregulation of OPN expression in 1% ethylene glycol-treated Rattus norvegicus Sprague-Dawley (rat) kidney at 4 mg/day, po after 14 days by ELISA (reference value: 75 +/- 13.5 %); format: functional
Rattus norvegicus [8] = assay: Downregulation of OPN expression in 1% ethylene glycol-treated po dosed Rattus norvegicus Sprague-Dawley (rat) kidney at 0.4 mg/day, po after 14 days by ELISA; format: functional, organism-based
Rattus norvegicus [9] = species: Rattus norvegicus; assay: Renoprotective activity in 1% ethylene glycol-treated Rattus norvegicus Sprague-Dawley (rat) kidney assessed as decrease in oxalate excretion in urine at 4 mg/day after 14 days (reference value: 4.07 +/- 0.05 uM); format: functional
Rattus norvegicus [10] = species: Rattus norvegicus; assay: Renoprotective activity in 1% ethylene glycol-treated Rattus norvegicus Sprague-Dawley (rat) kidney assessed as decrease in oxalate excretion in urine at 3 mg/day after 14 days (reference value: 4.07 +/- 0.05 uM); format: functional
Rattus norvegicus [11] = assay: Downregulation of OPN expression in Rattus norvegicus Sprague-Dawley (rat) kidney at 0.4 mg/day, po after 14 days by ELISA in presence of water (reference value: 10 +/- 3 %); format: functional
Rattus norvegicus [12] = assay: Downregulation of OPN expression in 1% ethylene glycol-treated Rattus norvegicus Sprague-Dawley (rat) kidney at 0.8 mg/day, po after 14 days by ELISA (reference value: 75 +/- 13.5 %); format: functional
Rattus norvegicus [13] = assay: Downregulation of OPN expression in 1% ethylene glycol-treated Rattus norvegicus Sprague-Dawley (rat) kidney at 0.4 mg/day, po after 14 days by ELISA (reference value: 75 +/- 13.5 %); format: functional

With `CC1=CC(=O)c2ccccc2C1=O` [MENADIONE] the Activity (Rattus norvegicus [1]) was 35%, the Activity (Rattus norvegicus [2]) was 3.44 µM and the Activity (Rattus norvegicus [3]) was 2.55 µM. It also gave an Activity (Rattus norvegicus [4]) of 30%, an Activity (Rattus norvegicus [5]) of 1.02 µM and an Activity (Rattus norvegicus [6]) of 3.04 µM. The Activity (Rattus norvegicus [7]) was 20%, the Activity (Rattus norvegicus [8]) was “Dose-dependent effect” and the Activity (Rattus norvegicus [9]) was 1.49 µM. It also gave an Activity (Rattus norvegicus [10]) of 2.01 µM, an Activity (Rattus norvegicus [11]) of 11% and an Activity (Rattus norvegicus [12]) of 55%. The Activity (Rattus norvegicus [13]) was 70%.
